Format in all cases: in vivo
One experiment concerns Spodoptera frugiperda. The experiment in a line: Spodoptera frugiperda spray test. The note with it: foliar, 168 h, application rate 100 g/ha, caterpillars on maize leaf discs, after 7 days, read-out: efficacy. The method, then: Spodoptera frugiperda—Spray Test [table] To produce a suitable active compound formulation, 1 part by weight of active compound is dissolved with the specified parts by weight of solvent and made up to the desired concentration with water containing an emulsifier concentration of 1000 ppm. To produce further test concentrations, the formulation is diluted with emulsifier-containing water. Leaf discs of maize (Zea mays) are sprayed with an active compound formulation of the desired concentration and, after drying, populated with caterpillars of the fall armyworm (Spodoptera frugiperda). After 7 days, the efficacy in % is determined. 100% means that all the caterpillars have been killed; 0% means that no caterpillar has been killed.

For another experiment, the system named is Phaedon cochleariae. The experiment in a line: Phaedon cochleariae spray test. The settings on record: foliar, 168 h, application rate 100 g/ha, larvae on Chinese cabbage leaf discs, after 7 days, read-out: efficacy. The method, then:
Phaedon cochleariae—Spray Test
(§1) To produce a suitable active compound formulation, 1 part by weight of active compound is dissolved with the specified parts by weight of solvent and made up to the desired concentration with water containing an emulsifier concentration of 1000 ppm. To produce further test concentrations, the formulation is diluted with emulsifier-containing water.
Discs of Chinese cabbage leaves (Brassica pekinensis) are sprayed with an active compound formulation of the desired concentration and, after drying, populated with larvae of the mustard beetle (Phaedon cochleariae).
After 7 days, the efficacy in % is determined. 100% means that all the beetle larvae have been killed; 0% means that no beetle larvae have been killed.

The subject of experiment [1] is Myzus persicae. Nature of the experiment: Myzus persicae oral test. The note with it: 120 h, mixed population of green peach aphids, after 5 days, read-out: efficacy; for pest or weed control at 4 ppm: application rate 4 ppm. The method, then: Myzus persicae—Oral Test [table] To produce a suitable active compound formulation, 1 part by weight of active compound is dissolved with the stated parts by weight of solvent and made up to the desired concentration with water. 50 μl of the active compound formulation are transferred into microtitre plates and made up to a final volume of 200 μl with 150 μl of IPL41 insect medium (33%+15% sugar). Subsequently, the plates are sealed with parafilm, which a mixed population of green peach aphids (Myzus persicae) within a second microtitre plate is able to puncture and imbibe the solution. After 5 days, the efficacy in % is determined. 100% means that all the aphids have been killed; 0% means that no aphids have been killed.

The test system of experiment [2] is Myzus persicae. Nature of the experiment: Myzus persicae spray test. The settings on record: foliar, 120 h, application rate 100 g/ha, Chinese cabbage leaf discs infested by all stages, after 5 days, read-out: efficacy. The method, then: Myzus persicae—Spray Test [table] To produce a suitable active compound formulation, 1 part by weight of active compound is dissolved with the specified parts by weight of solvent and made up to the desired concentration with water containing an emulsifier concentration of 1000 ppm. To produce further test concentrations, the formulation is diluted with emulsifier-containing water. Discs of Chinese cabbage leaves (Brassica pekinensis) infested by all stages of the green peach aphid (Myzus persicae) are sprayed with an active compound formulation of the desired concentration. After 5 days, the efficacy in % is determined. 100% means that all the aphids have been killed; 0% means that no aphids have been killed.

Another experiment concerns Ctenocephalides felis. Nature of the experiment: Ctenocephalides felis oral test. The settings on record: application rate 100 ppm in citrated cattle blood; unfed adult cat fleas; after 2 days. The method, then:
Ctenocephalides felis—Oral Test Solvent: Dimethyl Sulfoxide To produce a suitable active compound formulation, 10 mg of active compound are mixed with 0.5 ml of dimethyl sulfoxide. Dilution with citrated cattle blood gives the desired concentration. About 20 unfed adult cat fleas (Ctenocephalides felis) are placed into a chamber which is closed at the top and bottom with gauze. A metal cylinder whose bottom end is closed with parafilm is placed onto the chamber. The cylinder contains the blood/active compound formulation, which can be imbibed by the fleas through the parafilm membrane. After 2 days, the kill in % is determined. 100% means that all of the fleas have been killed; 0% means that none of the fleas have been killed.

For another experiment, the system named is Musca domestica. The experiment in a line: Musca domestica test. The note with it: application rate 100 ppm; adult houseflies, sponge with sugar solution; after 2 days. The method, then:
Musca domestica Test Solvent: Dimethyl Sulfoxide To produce a suitable active compound formulation, 10 mg of active compound are mixed with 0.5 ml of dimethyl sulfoxide, and the concentrate is diluted with water to the desired concentration. Vessels containing a sponge treated with sugar solution and the desired concentration of active compound formulation are populated with 10 adult houseflies (Musca domestica). After 2 days, the kill in % is determined. 100% means that all of the flies have been killed; 0% means that none of the flies have been killed.

For a further experiment, the system named is Lucilia cuprina. The experiment in a line: Lucilia cuprina test. The settings on record: application rate 100 ppm; L1 larvae on minced horsemeat; after 2 days. The method, then:
Lucilia cuprina Test Solvent: Dimethyl Sulfoxide To produce a suitable active compound formulation, 10 mg of active compound are mixed with 0.5 ml of dimethyl sulfoxide, and the concentrate is diluted with water to the desired concentration. About 20 L1 larvae of the Australian sheep blowfly (Lucilia cuprina) are transferred into a test vessel containing minced horsemeat and the active compound preparation of the desired concentration. After 2 days, the kill in % is determined. 100% means that all the larvae have been killed; 0% means that no larvae have been killed.

A further experiment deals with Tetranychus urticae. The experiment in a line: Tetranychus urticae spray test, OP-resistant. The settings on record: application rate 100 g/ha, bean leaf discs infested with all stages, after 6 days. The method, then: Tetranychus urticae—Spray Test, OP-Resistant
as §1
Discs of bean leaves (Phaseolus vulgaris) infested with all stages of the greenhouse red spider mite (Tetranychus urticae) are sprayed with an active compound formulation of the desired concentration.
After 6 days, the efficacy in % is determined. 100% means that all the spider mites have been killed; 0% means that no spider mites have been killed.

`CCS(=O)(=O)c1c(-c2nc3cc(C(F)(F)F)ncc3n2C)sc2cc(C(F)(F)F)sc12` [I-3, 2-[3-(Ethylsulfonyl)-5-(trifluoromethyl)thieno[3,2-b]thiophen-2-yl]-3-methyl-6-(trifluoromethyl)-3H-imidazo[4,5-c]pyridine]: the pest or weed control at 100 g/ha with Spodoptera frugiperda and in the experiment with Phaedon cochleariae was 100% throughout. Besides, in the experiment on Myzus persicae [1], the pest or weed control at 4 ppm worked out at 100%.
On to `CCS(=O)(=O)c1c(-c2nc3cc(C(F)(F)F)ncc3n2C)sc2c(-n3cnc(C(F)(F)F)c3)csc12` [I-21], for which the pest or weed control at 100 g/ha turned out to be 100% in the experiment on Spodoptera frugiperda, 90% with Myzus persicae [2] and 100% with Phaedon cochleariae. In the experiment on Myzus persicae [1], the pest or weed control at 4 ppm came to 100%.
Turning to `CCS(=O)(=O)c1c(-c2nc3cc(C(F)(F)F)ncc3n2C)sc2c(-n3cc(Cl)cn3)csc12` [I-20, 2-[6-(4-Chloro-1H-pyrazol-1-yl)-3-(ethylsulfonyl)thieno[3,2-b]thiophen-2-yl]-3-methyl-6-(trifluoromethyl)-3H-imidazo[4,5-c]pyridine], the pest or weed control at 100 g/ha in the experiment with Spodoptera frugiperda and with Phaedon cochleariae was 100% throughout. For the same molecule, in the experiment on Myzus persicae [1], the pest or weed control at 4 ppm turned out to be 100%.
Take `CCS(=O)(=O)c1c(-c2nc3cc(C(F)(F)F)ncc3n2C)sc2c(Br)csc12` [I-8, 2-[6-Bromo-3-(ethylsulfonyl)thieno[3,2-b]thiophen-2-yl]-3-methyl-6-(trifluoromethyl)-3H-imidazo[4,5-c]pyridine]: in the experiment on Spodoptera frugiperda, the pest or weed control at 100 g/ha was 100%. Also, the pest or weed control at 4 ppm in the experiment on Myzus persicae [1] is 100%.
For the molecule `CCS(=O)(=O)c1c(-c2nc3cc(C(F)(F)F)nnc3n2C)sc2cc(C(F)(F)F)sc12` [I-18], the “efficacy (kill in %)” value in the experiment on Ctenocephalides felis turned out to be 100%; with Musca domestica, 80%. Also, the pest or weed control at 100 g/ha with Spodoptera frugiperda, in the experiment on Myzus persicae [2] and in the experiment on Phaedon cochleariae was 100% throughout. In addition, in the experiment with Myzus persicae [1], the pest or weed control at 4 ppm is 100%.
On to `CCS(=O)(=O)c1c(-c2nc3cc(C(F)(F)F)ncc3n2C)sc2cc(C)sc12` [I-22], for which, in the experiment on Myzus persicae [2], the pest or weed control at 100 g/ha turned out to be 90%. For the same molecule, the pest or weed control at 4 ppm in the experiment on Myzus persicae [1] is 100%.
Consider `CCS(=O)(=O)c1c(-c2nc3cc(C(F)(F)F)ncc3n2C)sc2ccoc12` [I-2, 2-[6-(Ethylsulfonyl)thieno[3,2-b]furan-5-yl]-3-methyl-6-(trifluoromethyl)-3H-imidazo[4,5-c]pyridine], for which the “efficacy (kill in %)” value in the experiment with Lucilia cuprina is listed as 100%. Further, the pest or weed control at 4 ppm in the experiment on Myzus persicae [1] worked out at 100%.
As to `CCS(=O)(=O)c1c(-c2nc3cc(C(F)(F)F)nnc3n2C)sc2nc(C(F)(F)F)sc12` [I-9], the pest or weed control at 100 g/ha in the experiment on Spodoptera frugiperda and in the experiment on Phaedon cochleariae was 100% throughout. The pest or weed control at 4 ppm with Myzus persicae [1] was determined as 100%.
Take `CCS(=O)(=O)c1c(-c2nc3cc(C(F)(F)F)cnc3n2C)sc2nc(C(F)(F)F)sc12` [I-13]: the pest or weed control at 100 g/ha in the experiment with Spodoptera frugiperda and in the experiment on Phaedon cochleariae was 100% each time. In the experiment on Myzus persicae [1], the pest or weed control at 4 ppm is 90%.
Consider `CCS(=O)(=O)c1c(-c2nc3cc(C(F)(F)F)ncc3n2C)sc2c(NC(C)=O)csc12` [I-6, N-{6-(Ethylsulfonyl)-5-[3-methyl-6-(trifluoromethyl)-3H-imidazo[4,5-c]pyridin-2-yl]thieno[3,2-b]thiophen-3-yl}acetamide], for which the pest or weed control at 100 g/ha in the experiment on Myzus persicae [2] stood at 90%.
`CCS(=O)(=O)c1c(-c2nc3cc(C(F)(F)F)ncc3n2C)sc2c(C#N)csc12` [I-5, 6-(Ethylsulfonyl)-5-[3-methyl-6-(trifluoromethyl)-3H-imidazo[4,5-c]pyridin-2-yl]thieno[3,2-b]thiophene-3-carbonitrile]: the pest or weed control at 4 ppm in the experiment on Myzus persicae [1] was 100%.
Regarding `CCS(=O)(=O)c1c(-c2nc3cc(C(F)(F)F)ncc3n2C)sc2c(NC(=O)C3CC3)csc12` [I-19], the pest or weed control at 0.8 ppm in the experiment with Myzus persicae [1] (application rate 0.8 ppm) was 100%.
As for `CCS(=O)(=O)c1c(-c2nc3cc(C(F)(F)C(F)(F)F)ncc3n2C)sc2nc(C(F)(F)F)sc12` [I-14], the pest or weed control at 100 g/ha in the experiment on Spodoptera frugiperda was 100%; in the experiment with Myzus persicae [2], 90%; in the experiment on Phaedon cochleariae, 100%. The pest or weed control at 4 ppm with Myzus persicae [1] came out at 90%.
For the molecule `CCS(=O)(=O)c1c(-c2nc3cc(C(F)(F)F)ncc3n2C)sc2c(-c3cnn(C)c3)csc12` [I-11, 2-[3-(Ethylsulfonyl)-6-(1-methyl-1H-pyrazol-4-yl)thieno[3,2-b]thiophen-2-yl]-3-methyl-6-(trifluoromethyl)-3H-imidazo[4,5-c]pyridine], the pest or weed control at 100 g/ha was found to be 90% in the experiment on Myzus persicae [2] and 83% in the experiment with Phaedon cochleariae. The pest or weed control at 4 ppm in the experiment with Myzus persicae [1] stood at 90%.
For `CCS(=O)(=O)c1c(-c2nc3cc(C(F)(F)F)ncc3n2C)sc2c1C(=O)CC2` [I-30], in the experiment on Tetranychus urticae, the efficacy is on record as 90%.
On to `CCS(=O)(=O)c1c(-c2nc3cc(C(F)(F)F)ncc3n2C)sc2c(C3CC3)csc12` [I-23], for which the pest or weed control at 100 g/ha in the experiment on Spodoptera frugiperda came to 100%. Moreover, in the experiment on Myzus persicae [1], the pest or weed control at 4 ppm amounted to 100%.
For `CCS(=O)(=O)c1c(-c2nc3cc(C(F)(F)F)ncc3n2C)sc2c1CCC2` [I-4, 2-[3-(Ethylsulfonyl)-5,6-dihydro-4H-cyclopenta[b]thiophen-2-yl]-3-methyl-6-(trifluoromethyl)-3H-imidazo[4,5-c]pyridine], the “efficacy (kill in %)” value in the experiment with Lucilia cuprina stood at 90%. Further, the pest or weed control at 4 ppm in the experiment on Myzus persicae [1] was 100%.
Turning to `CCS(=O)(=O)c1c(-c2nc3cc(C(F)(F)F)ncc3n2C)sc2c(C(=O)NC)csc12` [I-24], in the experiment with Myzus persicae [2], the pest or weed control at 100 g/ha worked out at 90%. Moreover, the pest or weed control at 4 ppm with Myzus persicae [1] amounted to 100%.
For the molecule `CCS(=O)(=O)c1c(-c2nc3cc(C(F)(F)F)ncc3n2C)sc2c(-c3ccccc3)csc12` [I-16, 2-[3-(Ethylsulfonyl)-6-phenylthieno[3,2-b]thiophen-2-yl]-3-methyl-6-(trifluoromethyl)-3H-imidazo[4,5-c]pyridine], the pest or weed control at 100 g/ha was determined as 100% with Spodoptera frugiperda and 90% in the experiment with Myzus persicae [2]. Moreover, the pest or weed control at 4 ppm in the experiment on Myzus persicae [1] amounted to 100%.
As for `CCS(=O)(=O)c1c(-c2nc3cc(C(F)(F)F)ncc3n2C)sc2cc(Cl)sc12` [I-25], the pest or weed control at 100 g/ha in the experiment with Spodoptera frugiperda was determined as 100%; with Myzus persicae [2], 90%. Besides, the pest or weed control at 4 ppm in the experiment with Myzus persicae [1] is 100%.
Regarding `CCS(=O)(=O)c1c(-c2nc3cc(C(F)(F)F)ncc3n2C)sc2ccsc12` [I-1], in the experiment on Lucilia cuprina, the “efficacy (kill in %)” value was determined as 100%. The pest or weed control at 4 ppm in the experiment on Myzus persicae [1] is 100%.

For the origin of these results see patent US20200128830A1, “FUSED BICYCLIC HETEROCYCLE DERIVATIVES AS PESTICIDES” (Bayer Aktiengesellschaft, priority 2017, published 2020).
